Assay results published in US6660759B1, “4.5-diaryloxazole compounds with prostaglandin I2 (PGI2) agonistic activity” (Fujisawa Pharmaceutical Co. Ltd., priority 1999, dated 2003).
pIC50: −log10 of the molar value.

Tested on: Human platelet aggregation induced by ADP (platelet rich plasma)
Assay: Inhibition of human platelet aggregation induced by ADP
Assay type: cell-based
Details: human PRP; aggregation induced by ADP at final concentration of 2.5 μM; 37° C.
Procedure: Inhibition of Human Platelet Aggregation Induced by ADP
Human blood was obtained from healthy volunteers and mixed with 1/10 volume of 3.8% sodium citrate, pH 7.4. The citrate blood was centrifuged at 150×g for 10 minutes and the platelet rich plasma (PRP) was removed. The remaining blood was centrifuged for a further 10 minutes at 1500×g to prepare the platelet poor plasma (PPP), which was used as a reference for platelet aggregation. Aggregation studies were carried out using HEMATRACER 801 (NBS, Japan), a 8 channel aggregometer. The test compound solution (25 μl) and the PRP (225 μl) were mixed and stirred at 1000 rpm at 37° C. for 2 minutes. Aggregation was induced by ADP solution at the final concentration of 2.5 μM.

pIC50: > 7.00
SMILES: CCOC(=O)COc1cccc(CN2C[C@H](O)C[C@@H]2c2nc(-c3ccccc3)c(-c3ccccc3)o2)c1 [(1)]
